Source: US20200329707A1, “PYRAZOLAMIDE COMPOUND HAVING INSECTICIDAL ACTIVITY AND USE THEREOF” (JIANGSU FLAG CHEMICAL INDUSTRY CO., LTD., priority 2017, published 2020)

Columns and labels:
Type in all cases: in vivo
[1] = tested on: Spodoptera litura; assay: Insecticidal effect on Spodoptera litura, feeding with immersed cabbage leaf discs; conditions: 40 ppm reagent solution; 3rd instar larvae; deaths in 5 days
Description: (§1) The test reagents were all individually dissolved in a mixed solvent of acetone:[…] (1:1) to give a 1000 mg/L solution. 1% Tween-80 was added as an emulsifier to each solution. These solutions were then diluted with 1% Tween-20 solution in water to give desired concentrations of test solutions. An aqueous solution containing 1% Tween-20 was used as a control.
Third instar larvae of Spodoptera litura were used, and the insecticidal effect test was carried out by feeding with leaves immersed with various compounds. The cabbage leaves that had not been exposed to insecticides were cut into leaf discs of about 40 square-mm with scissors. The leaf discs were immersed in each compound solution for 30 s. Then the leaf discs were placed on absorbent paper and air-dried until there were no obvious water stains on the leaf discs. The leaf discs soaked with the reagents were placed in a petri dish (7 cm), each petri dish having 3 leaf discs. The 3rd instar larvae of Spodoptera litura raised on the indoor cabbage plants were gently picked up with a pen brush and placed on the leaf discs in the petri dish, each petri dish having 10-15 insects. After the insects were inoculated, the petri dish was covered, and placed in an insect-cultivating chamber at 25° C. with a 16-h-light/8-h-dark photoperiod. The number of deaths in 5 days was investigated, and the mortality was calculated.

[2] = tested on: Frankliniella intonsa; assay: Insecticidal effect on Frankliniella intonsa, treated filter paper in petri dish; conditions: 60 ppm reagent solution; nymphs; 72 hrs
Description: as §1
On the bottom of a glass petri dish with a diameter of 6 cm, a piece of filter paper with the same diameter was laid. 1 mL of the reagent solution was drawn by a pipette and uniformly dripped on the filter paper. After the acetone was volatilized, Nymphs of Frankliniella intonsa were transferred from Bombax ceiba with a brush pen to the filter paper in the petri dish. After 0.5-1 h when the insect body was fully covered with the reagent, 3 cm-long petals of Bombax ceiba were placed and the Petri dish were covered. 3 replicates were set for each treatment. After the insects were inoculated, the petri dish was placed in an insect-cultivating chamber at 25° C. with a 16-h-light/8-h-dark photoperiod. 72 hrs after the insects were inoculated, the deaths of Frankliniella intonsa were investigated to calculate the mortality.

[3] = tested on: Helicoverpa armigera; assay: Insecticidal effect on Helicoverpa armigera, immersed cabbage leaf discs in 24-well plate; conditions: foliar, 72 h, read-out: Insecticidal activity (%) on Helicoverpa armigera (mortality %)
Description: as §1
Third instar larvae of Helicoverpa armigera were used, and the insecticidal effect test was carried out by feeding with leaves immersed with various compounds. The cabbage leaves that had not been exposed to insecticides were punched into leaf discs having a diameter of […]. The leaf discs were immersed in each compound solution for 30 s. Then the leaf discs were placed on absorbent paper and air-dried until there were no obvious water stains on the leaf discs. A washed 24-well plate was prepared, and about 1 ml of water agar medium was fed to each well. After solidification, the treated leaf discs were placed on the medium in the 24-well plate, and then 1 3rd-instar larva of Helicoverpa armigera was inoculated into each well. The 24-well plate was covered after inoculation, placed in an insect cultivating chamber at 25° C. with a 16-h-light/8-h-dark photoperiod. The number of deaths in 3 days was investigated, and the mortality was calculated.

## Cc1cc(Cl)cc(C(=O)NC(C)(C)C(N)=O)c1NC(=O)c1cc(Br)nn1-c1ncccc1Cl [Compound 1.1, N-(2-N-((1-amino-2-methyl-1-acylpropan-2-yl)-formyl)-4-chloro-6-methylphenyl)-1-(3-chloropyridin-2-yl)-3-bromo-1H-pyrazol-5-carboxamide]
[1]
  control effect on Spodoptera litura: more than 80%
[2]
  control effect on Frankliniella intonsa: more than 80%
[3]
  mortality at 5 ppm: 75%
  mortality at 15 ppm: 87.5%

## CC(C)(NC(=O)c1cc(Cl)cc(Cl)c1NC(=O)c1cc(Cl)nn1-c1ncccc1Cl)C(N)=O [KC1]
[3]
  mortality at 5 ppm: 10%
  mortality at 15 ppm: 46.7%

## CC(C)(NC(=O)c1cc(Cl)cc(Cl)c1NC(=O)c1cc(Br)nn1-c1ncccc1Cl)C(N)=O [KC2]
[3]
  mortality at 5 ppm: 16.7%
  mortality at 15 ppm: 37.5%
